Source: paper PMC3594701 (Journal of acquired immune deficiency syndromes (1999), 2011)
Marks after values point to notes of the source that are not given here.

Experiments:
[1] = Steady-state intracellular; format: in vivo, human; conditions: IC (PBMC); for GM AUC: AUC0–12; for Cmax: GM Cmax
[2] = Steady-state plasma pharmacokinetics; format: in vivo, human; conditions: for Cmax: GM Cmax
[3] = IC accumulation: ratio of IC drug to drug in plasma; conditions: human, GM IC to Plasma Ratio
HIV = conditions: 800 mg once daily versus approved 400 mg twice-daily dose; cited from earlier work
[4] = 10 HIV-infected individuals, 6 also on twice-daily darunavir/ritonavir; cited from earlier work
[5] = group 1, period 2 (day 35): raltegravir 400 mg twice daily + darunavir/ritonavir 800/100 mg once daily
[6] = group 1, period 2 (day 35): raltegravir 400 mg twice daily + darunavir/ritonavir 800/100 mg once daily, listed as raltegravir
[7] = group 2, period 2 (day 35): raltegravir 800 mg once daily + darunavir/ritonavir 800/100 mg once daily

GM AUC ([1]; group 1, period 1 (day 21): raltegravir 400 mg twice daily, without darunavir/ritonavir): 9010 ng/h/mL
GM AUC ([1]; group 1, period 1 (day 21): raltegravir 400 mg twice daily, without darunavir/ritonavir, listed as raltegravir): 9010 (7852–13,519) ng·h^−1·mL^−1
GM Ctrough [1, 5]: 105 ng/mL
GM Ctrough [1, 6]: 105 (51–295) ng/mL
GM AUC ([1]; group 2, period 1 (day 21): raltegravir 400 mg twice daily, without darunavir/ritonavir): 8780 ng/h/mL
GM AUC ([1]; group 2, period 1 (day 21): raltegravir 400 mg twice daily, without darunavir/ritonavir, listed as raltegravir): 8780 (7286–16,400) ng·h^−1·mL^−1
GM Ctrough [1, 7]: 22 ng/mL
Cmax ([1]; human, PBMC (intracellular), oral, 400 mg, group 2, period 1 (day 21): raltegravir 400 mg twice daily, without darunavir/ritonavir): 1870 ng/mL
Cmax ([1]; human, PBMC, 400 mg, group 1, period 1 (day 21): raltegravir 400 mg twice daily, without darunavir/ritonavir): 2310 ng/mL
concentration at 12 h ([1]; human, PBMC, GM Ctrough, group 1, period 1 (day 21): raltegravir 400 mg twice daily, without darunavir/ritonavir): 101 ng/mL
concentration at 12 h ([1]; human, PBMC, GM Ctrough, group 2, period 1 (day 21): raltegravir 400 mg twice daily, without darunavir/ritonavir): 115 ng/mL
Cmax ([1]; human, PBMC, oral, 400 mg, group 1, period 1 (day 21): raltegravir 400 mg twice daily, without darunavir/ritonavir): 2310 ng/mL
Cmax ([1]; human, PBMC, oral, group 1, period 2 (day 35): raltegravir 400 mg twice daily + darunavir/ritonavir 800/100 mg once daily): 2170 ng/mL
Cmax ([1]; human, PBMC, oral, group 2, period 2 (day 35): raltegravir 800 mg once daily + darunavir/ritonavir 800/100 mg once daily): 2820 ng/mL
concentration at 12 h ([1]; human, PBMC, oral, GM Ctrough, group 1, period 1 (day 21): raltegravir 400 mg twice daily, without darunavir/ritonavir): 101 ng/mL
concentration at 12 h ([1]; human, PBMC, oral, GM Ctrough, group 2, period 1 (day 21): raltegravir 400 mg twice daily, without darunavir/ritonavir): 115 ng/mL
concentration at 24 h ([1]; human, PBMC, oral, GM Ctrough, group 2, period 2 (day 35): raltegravir 800 mg once daily + darunavir/ritonavir 800/100 mg once daily): 22 ng/mL
GM Ctrough [2, 5]: 20 ng/mL
GM Ctrough [2, 6]: 20 (17–25) ng/mL
GM Ctrough [2, 7]: 11 ^* ng/mL
Cmax ([2]; human, group 1, period 2 (day 35): raltegravir 400 mg twice daily + darunavir/ritonavir 800/100 mg once daily): 438 ng/mL
concentration at 12 h ([2]; human, GM Ctrough, group 1, period 1 (day 21): raltegravir 400 mg twice daily, without darunavir/ritonavir): 23 ng/mL
concentration at 12 h ([2]; human, GM Ctrough, group 2, period 1 (day 21): raltegravir 400 mg twice daily, without darunavir/ritonavir): 28 ng/mL
Cmax ([2]; human, oral, 400 mg, group 1, period 1 (day 21): raltegravir 400 mg twice daily, without darunavir/ritonavir): 533 ng/mL
Cmax ([2]; human, oral, 400 mg, group 2, period 1 (day 21): raltegravir 400 mg twice daily, without darunavir/ritonavir): 361 ng/mL
Cmax ([2]; human, oral, group 2, period 2 (day 35): raltegravir 800 mg once daily + darunavir/ritonavir 800/100 mg once daily): 556 ng/mL
concentration at 12 h ([2]; human, oral, GM Ctrough, group 1, period 1 (day 21): raltegravir 400 mg twice daily, without darunavir/ritonavir): 23 ng/mL
concentration at 12 h ([2]; human, oral, GM Ctrough, group 2, period 1 (day 21): raltegravir 400 mg twice daily, without darunavir/ritonavir): 28 ng/mL
concentration at 24 h ([2]; human, oral, GM Ctrough, group 2, period 2 (day 35): raltegravir 800 mg once daily + darunavir/ritonavir 800/100 mg once daily): 11 ng/mL
Kp ([3]; PBMC (intracellular)/plasma, oral, 400 mg, AUC, group 1, period 1 (day 21): raltegravir 400 mg twice daily, without darunavir/ritonavir): 4.9
Kp ([3]; PBMC (intracellular)/plasma, oral, 400 mg, AUC, group 2, period 1 (day 21): raltegravir 400 mg twice daily, without darunavir/ritonavir): 5.6
Kp ([3]; PBMC (intracellular)/plasma, oral, 400 mg, Cmax, group 1, period 1 (day 21): raltegravir 400 mg twice daily, without darunavir/ritonavir): 4.6
Kp ([3]; PBMC (intracellular)/plasma, oral, 400 mg, Cmax, group 2, period 1 (day 21): raltegravir 400 mg twice daily, without darunavir/ritonavir): 5.5
Kp ([3]; PBMC (intracellular)/plasma, oral, 400 mg, Ctrough, group 1, period 1 (day 21): raltegravir 400 mg twice daily, without darunavir/ritonavir): 5.1
Kp ([3]; PBMC (intracellular)/plasma, oral, 400 mg, Ctrough, group 2, period 1 (day 21): raltegravir 400 mg twice daily, without darunavir/ritonavir): 4.6
Kp ([3]; intracellular (PBMC) / plasma, AUC (raltegravir), group 1, period 2 (day 35): raltegravir 400 mg twice daily + darunavir/ritonavir 800/100 mg once daily): 5.8
Kp ([3]; intracellular (PBMC) / plasma, AUC (raltegravir), group 2, period 2 (day 35): raltegravir 800 mg once daily + darunavir/ritonavir 800/100 mg once daily): 6
Kp ([3]; intracellular (PBMC) / plasma, oral, Cmax, group 1, period 2 (day 35): raltegravir 400 mg twice daily + darunavir/ritonavir 800/100 mg once daily): 5.6
Kp ([3]; intracellular (PBMC) / plasma, oral, Cmax, group 2, period 2 (day 35): raltegravir 800 mg once daily + darunavir/ritonavir 800/100 mg once daily): 6.8
Kp ([3]; intracellular (PBMC) / plasma, oral, Ctrough, group 1, period 2 (day 35): raltegravir 400 mg twice daily + darunavir/ritonavir 800/100 mg once daily): 4.5
Kp at 24 h ([3]; intracellular (PBMC) / plasma, oral, Ctrough, group 2, period 2 (day 35): raltegravir 800 mg once daily + darunavir/ritonavir 800/100 mg once daily): 2.4
SMILES: Cc1nnc(C(=O)NC(C)(C)c2nc(C(=O)NCc3ccc(F)cc3)c(O)c(=O)n2C)o1 [Raltegravir, raltegravir]
virological response (HIV): did not show the same virological response
decrease of plasma AUC [4]: 33%
